Experimental data reported in patent publication US8609695B2, “Methods of treating and/or suppressing insulin resistance” (Endorecherche, Inc., priority 1999, dated 2013).

How the values were obtained:
[1] = test system: ovariectomized female rats; test: SERM comparison, energy balance and lipid-lipoprotein metabolism (Example 10); format: in vivo, Rattus norvegicus; settings: OVX rats, 20 days
Method in brief: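 Ovariectomized rats on a high-carbohydrate diet dosed by oral gavage 0.5 mg/rat in 0.4% methylcellulose for 20 days; sham-operated group included. Body weight and food intake every 2 days, DEXA body fat on Day 17. Necropsy on day 21, ~24 h post-dose after 6 h fast: serum lipids, glucose, insulin, leptin, tissue weights.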

[2] = test system: human breast cancer MCF-7 cells; test: Proliferation of MCF-7 cell line, DNA content (Example 12); format: cell-based
Excerpt: MCF-7 human breast cancer cells were obtained from the American Type Culture Collection # HTB 22 at passage 147 and routinely grown in phenol red-free Dulbecco's Modified Eagle's-Ham's F12 medium, the supplements mentioned above and 5% FBS. The MCF-7 human breast adenocarcinoma cell line was derived from the pleural effusion of a patient. MCF-7 cells were used between passages 148 and 165 and subcultured weekly.
Cells in their late logarithmic growth phase were harvested with 0.1% pancreatin (Sigma) and resuspended in the appropriate medium containing 50 ng bovine insulin/ml and 5% (v/v) FBS treated twice with dextran-coated charcoal to remove endogenous steroids. Cells were plated in 24-well Falcon plastic culture plates (2 cm2/well) at the indicated density and allowed to adhere to the surface of the plates for 72 h. […] Control cells received only the ethanolic vehicle (0.1% EtOH,v/v). Cells were incubated for the specified time intervals with medium changes at 2- or 3-day intervals. Cell number was determined by measurement of DNA content.
Dose-response curves as well IC50 values were calculated using a weighted iterative nonlinear least-squares regression. All results are expressed as means±SEM.

[3] = high carbohydrate diet, 0.5 mg/rat oral gavage

IC50 ([2]; Homo sapiens, MCF7, read-out: Inhibition of 1 nM E2 stimulation of DNA by tested compounds IC50): 0.796 nM
EC50 ([2]; Homo sapiens, MCF7, MCF-7 cells, text summary of table 12, read-out: EC50 of inhibition (antiestrogen activity)): 0.8 nM
SMILES: CC1=C(c2ccc(O)cc2)[C@H](c2ccc(OCCN3CCCCC3)cc2)Oc2cc(O)ccc21.Cl [EM-652.HCl, (S)-(+)-7-hydroxy-3-(4′-hydroxyphenyl)-4-methyl-2-(4″-(2′″-piperidino-ethoxy)phenyl)-2H-1-benxopyran hydrochloride]
Serum insulin (in words) ([1]; 0.5 mg/rat): decreased
Brown adipose tissue Lipoprotein lipase activity [1, 3]: 900 ± 91 μU/g protein
Brown adipose tissue weight [1, 3]: 0.339 ± 0.038 g
Cumulative food intake [1, 3]: 324 ± 5 g
Serum glucose [1, 3]: 15.9 ± 1.4 mmol/L
Serum insulin [1, 3]: 0.122 ± 0.021 nmol/L
Serum leptin [1, 3]: 1.10 ± 0.22 ng/mL
Serum triglycerides [1, 3]: 0.91 ± 0.17 mmol/L
Soleus muscle Lipoprotein lipase activity [1, 3]: 14.5 ± 4.1 μU/g protein
Soleus muscle weight [1, 3]: 0.118 ± 0.018 g
Total weight [1, 3]: 252 ± 4 g
VastusLateralis muscle weight [1, 3]: 1.00 ± 0.047 g
White adipose tissue inguinal Lipoprotein lipase activity [1, 3]: 684 ± 216 μU/g protein
White adipose tissue inguinal weight [1, 3]: 0.244 ± 0.028 g
White adipose tissue retroperitoneal Lipoprotein lipase activity [1, 3]: 1917 ± 365 μU/g protein
White adipose tissue retroperitoneal weight [1, 3]: 1.32 ± 0.21 g
Stimulation of DNA by tested compounds % of 1 nM E2 stimulation ([2]; MCF-7 cells, absence of E2): N.S.
